Test results: patent US9192611B2, “Formulations comprising methylthioninium chloride” (WisTa Laboratories Ltd., priority 2010, dated 2015)

Assays:
[1] = background statement; cited from earlier work
[2] = Thermodynamic stability of MTC hydrates as a function of RH and temperature; settings: any T and RH; kinetically stable in a certain range

Compound	RH down to which high kinetic stability is observed [1]	Thermodynamic stability, in words [2]
CN(C)c1ccc2nc3ccc(=[N+](C)C)cc-3sc2c1 [Form A, Methylthioninium chloride]	less than 20%	–
CN(C)c1ccc2nc3ccc(=[N+](C)C)cc-3sc2c1 [Form B, Methylthioninium chloride]	–	not thermodynamically stable
